{"source": "patent US20250261646A1", "about": "“SOLID COMPOSITION AS A SOLUBLE PRECURSOR OF AN ECO-FRIENDLY AND EFFECTIVE METAL-BASED BIOCIDE, PROCESS AND USE THEREOF” (BIOREM ENGINEERING SA, priority 2022, published 2025)", "origin": "cited, not measured here", "details": "for comparison", "data": [{"molecule": "[O]=[Zn]", "note": "[ZnO, zinc(II) oxide]", "values": [{"measurement": "solubility", "result": 4, "unit": "µg/mL"}]}]}
